Measurements reported in patent US20040116346A1, “Affinity small molecules for the EPO receptor” (priority 2002, published 2004).

System: carboplatin-treated 8 week old C57BL mice
Experiment: Carboplatin induced anemia model (hematocrit)
Type: in vivo, mouse
Settings: mouse, in vivo
Protocol: Mice were treated with Carboplatin agent (available from Sigma, used regularly in chemotherapy) and a drop in hematocrit was induced. […] (FIGS. 9-11)
Determination of Effect of Non-peptide EPO-R Binding Small Molecule on Hematocrit in Carboplatin-Induced Anemia in 8 Week C57BI Male Mice
Preparation of injection solutions: Vehicle—Saline with 0.1 mg/mL BSA; Add 30 mg of BSA to 300 mL Saline; Vacuum filter under sterile conditions in laminar flow hood; Aliquot the saline (0.1 mg/mL BSA) solution into mini-sorp tubes. At least 41×7 mL aliquots should be prepared. Place caps on the tubes and store refrigerated at 4° C.;
Carboplatin—Dose of 120 mg/kg: Calculations for single injection given to 36 male mice (8 wks old˜25 g): […]×0.025 kg×36 mice=108 mg; Injections are delivered i.p. in a volume of 0.5 cc/mouse=0.5 cc/mouse×36 mice=18 cc; Carboplatin at 6 mg/mL for 36 mice: 108 mg/18 cc.; 120 mg/20 cc; On day of injection, add 120 mg carboplatin (Sigma #C2538) to 20 cc saline in a 100 cc beaker containing a stirring bar. Cover beaker with parafilm. Mix until the carboplatin has completely dissolved.
11 nmole/kg/mouse/day×0.025 kg×12 mice=3.3 nmoles/day; Injections are delivered i.p. in a volume of 0.5 cc/mouse/day=0.5 cc/mouse/day×12 mice=6 cc/day; non-peptide EPO-R binding small molecule for […]: 3.3 nmoles/6 cc each day: 3.85 nmole/7 cc each day; non-peptide EPO-R binding small molecule aliquot at 2 mM=2 nmole/uL; 3.85 nmole per day in 7 cc (0.55 nmole/mL); Therefore: 3.85 nmole divided by 2 nmole/uL stock=1.925 uL at 2 mM; Prepare in advance at least 10 aliquots of non-peptide EPO-R binding small molecule at 2 mM in small microfuge tubes, each with a volume of 2 uL. Freeze these aliquots; On each day of injections, add 1 thawed aliquot of the non-peptide EPO-R binding small molecule at 2 mM containing a 2 uL volume to a tube containing 7 cc of sterile saline (0.1 mg/mL BSA). […]

Cc1ccc(Cl)cc1Nc1nc2nc(C)c(NCC3CC3)cn2n1 [Compound E5]
hematocrit levels in animals treated with carboplatin: restore hematocrit levels
